Measured values: patent US20160045487A1, “COMPOSITIONS AND METHODS FOR TREATING NEUROPATHY” (CHILDEREN'S MEDICAL CENTER CORPORATION, priority 2013, published 2016)

How the values were obtained:
GFAP-DN-erbB4 mice = assay: PGP9.5-positive IENF density in hind paw skin; format: in vivo, mouse; details: treatment initiated after disease onset (P28), read at P35
Description: However, in the clinic, therapy would almost certainly begin after patients present with symptoms of SFN. Therefore, it was determined whether topical XIB4035 can act as a disease-modifying agent in the GFAP-DN-erbB4 neuropathy model starting after animals are clearly symptomatic (P28). […] While IB4 labeling in mutant mice was lower than wild types regardless of treatment, IB4 signal was clearly present in mutant mice treated with XIB4035 while absent in those treated with control cream (FIG. 3D; 83% of XIB4035 treated mice (n=6) with IB4+ lamina II terminals vs 0% (n=4) in control treated mice) (FIG. 3D).
Mice were anesthetized with 2.5% Avertin. Hind paws were removed, immersion fixed in 2% paraformaldehyde, 14% picric acid in 0.1 M phosphate buffer (pH 7.4) overnight at 4° C., and cryoprotected in 20% sucrose overnight at 4° C. Footpad skin was dissected from hind paws, embedded in OCT, sectioned at 30 μm, and stained as floating sections. […]
Skin section images were acquired as 30 μm Z-stacks (1 μm intervals) and processed as maximum intensity projections using a Zeiss LSM 700 microscope and ZEN software. […] A measured line was drawn using the DAPI channel to delineate the border between basal keratinocytes and outer layers of the epidermis. All PGP9.5 positive IENFs crossing the border were counted and expressed as a number per 100 μm length. […]

GFRα2/RET = target: T1, GFRα2/RET (Homo sapiens, UniProt O00451+P07949); assay: NRTN/GFRα2-induced RET phosphorylation in B(E)2-C cells; format: cell-based; details: 2 nM NRTN with 20 μM XIB4035, 10 minutes, then 60 minutes growth medium
T1 construct: B(E)2-C cells, which express only GFRα2 together with RET; endogenous in cells; host or cells: B(E)2-C / BE(2)-C cells
T1 sequence (O00451 22-444 limits assumed): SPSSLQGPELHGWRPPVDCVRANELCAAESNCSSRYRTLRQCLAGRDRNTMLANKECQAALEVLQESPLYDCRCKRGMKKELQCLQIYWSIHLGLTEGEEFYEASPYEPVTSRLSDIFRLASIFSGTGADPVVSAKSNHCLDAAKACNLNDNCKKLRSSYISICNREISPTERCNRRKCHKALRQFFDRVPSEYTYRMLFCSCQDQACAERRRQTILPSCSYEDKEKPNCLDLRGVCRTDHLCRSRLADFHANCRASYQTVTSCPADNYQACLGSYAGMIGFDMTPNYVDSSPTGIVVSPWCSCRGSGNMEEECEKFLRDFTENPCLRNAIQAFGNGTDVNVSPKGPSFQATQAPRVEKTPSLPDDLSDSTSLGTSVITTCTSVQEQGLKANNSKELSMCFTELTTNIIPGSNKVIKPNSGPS
T1 sequence (P07949 29-1114): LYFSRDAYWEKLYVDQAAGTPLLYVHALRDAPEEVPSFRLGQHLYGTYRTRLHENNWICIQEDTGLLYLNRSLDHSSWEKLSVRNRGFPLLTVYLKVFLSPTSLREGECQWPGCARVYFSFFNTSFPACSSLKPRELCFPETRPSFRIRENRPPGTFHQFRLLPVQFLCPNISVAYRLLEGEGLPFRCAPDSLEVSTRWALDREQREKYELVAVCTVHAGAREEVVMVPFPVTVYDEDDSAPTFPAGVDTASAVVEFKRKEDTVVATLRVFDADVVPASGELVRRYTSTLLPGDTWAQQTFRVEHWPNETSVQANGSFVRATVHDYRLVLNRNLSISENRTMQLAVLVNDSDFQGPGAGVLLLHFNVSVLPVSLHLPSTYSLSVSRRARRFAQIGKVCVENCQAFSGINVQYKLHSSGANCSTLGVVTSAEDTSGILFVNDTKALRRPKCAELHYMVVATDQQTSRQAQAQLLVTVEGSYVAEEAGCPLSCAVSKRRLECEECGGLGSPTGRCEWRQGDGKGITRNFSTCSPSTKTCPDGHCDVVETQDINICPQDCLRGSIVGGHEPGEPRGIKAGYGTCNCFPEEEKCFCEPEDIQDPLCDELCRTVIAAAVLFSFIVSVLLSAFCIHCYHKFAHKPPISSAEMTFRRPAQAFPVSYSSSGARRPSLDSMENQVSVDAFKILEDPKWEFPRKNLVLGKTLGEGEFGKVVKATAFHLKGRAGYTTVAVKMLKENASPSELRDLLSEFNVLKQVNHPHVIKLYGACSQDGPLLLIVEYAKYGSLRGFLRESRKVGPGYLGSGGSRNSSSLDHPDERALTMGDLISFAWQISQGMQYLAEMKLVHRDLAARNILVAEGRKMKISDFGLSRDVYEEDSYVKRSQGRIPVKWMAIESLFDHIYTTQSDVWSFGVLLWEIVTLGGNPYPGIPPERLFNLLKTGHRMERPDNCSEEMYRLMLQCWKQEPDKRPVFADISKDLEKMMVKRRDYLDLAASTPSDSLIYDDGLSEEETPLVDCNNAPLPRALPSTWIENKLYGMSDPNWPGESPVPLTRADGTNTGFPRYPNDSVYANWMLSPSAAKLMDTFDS
Description: B(E)2-C cells, which express GFRα2, were treated under different conditions (no treatment, 2 nM NRTN, or 2 nM NRTN with 20 μM XIB4035) for 10 minutes. Cells were either lysed immediately or after incubation in growth medium for an additional 60 minutes.
Since the original report argued that XIB4035 displaces GDNF binding to GFRα1 expressing cells (FIG. 2 in Tokugawa et al., Neurochem Int 42, 81-86 (2003).), potentially ARTN, on TH-luciferase activity and Ret phosphorylation. […] In this experiment, cells were treated with GDNF or ARTN with or without XIB4035 for 10 minutes and cell lysates were either collected immediately or treatment was washed out and replaced with growth media for 30, 60, or 120 minutes. […] Therefore, we tested cells expressing only one GFRα using either N2A cells (which express RET) transfected with GFRα1 or GFRα3 expression constructs, or B(E)2-C cells, which express only GFRα2 together with RET. […] The GFRα1 or GFRα3 transfected N2A cells were then treated with XIB4035 alone, the appropriate ligand for the expressed receptor alone, or XIB4035 and ligand in combination for 10 minutes, and collected lysates immediately after treatment or 60 minutes after washout. […] Similar results were obtained with GFRα2 and NRTN using B(E)2-C cells (FIG. 8). […]

CCN(CC)CCCC(C)Nc1cc(/C=C/c2ccccc2Cl)nc2cc(Cl)ccc12 (centres unmarked) [XIB4035, N4-{7-chloro-2-[(E)-2-(2-chloro-phenyl)-vinyl]-quinolin-4-yl}-N1,N1-diethyl-pentane-1,4-diamine]
IENF density in hind paw skin (GFAP-DN-erbB4 mice): did not rescue IENF density | RET phosphorylation at 60 min (GFRα2/RET): detected
